Read-outs that look alike come from different tables or passages of the source.
Tests used:
[1] = system: Pyricularia oryzae Carvara KA301; experiment: whole plant or invertebrate; format: in vivo; conditions: for pest or weed control at 2 ppm / pest or weed control at 10 ppm / pest or weed control at 50 ppm / pest or weed control at 100 ppm: Pyricularia oryzae, read-out: RCB control value (C.V.)
Botrytis cinerae = experiment: Fungicidal activity against cucumber gray mold rot (CGM) disease, control value; format: in vivo; conditions: 100 ppm; for pest or weed control at 100 ppm: Botrytis, read-out: CGM control value (C.V.)
Phytophthora infestans = experiment: whole plant or invertebrate; format: in vivo; conditions: for pest or weed control at 2 ppm / pest or weed control at 10 ppm / pest or weed control at 50 ppm / pest or weed control at 100 ppm: Phytophthora infestans, in Solanum lycopersicum, read-out: TLB control value (C.V.)
Puccinia recondita = experiment: Fungicidal activity against wheat leaf rust (WLR) disease, control value; format: in vivo; conditions: for pest or weed control at 2 ppm / pest or weed control at 10 ppm / pest or weed control at 50 ppm / pest or weed control at 100 ppm: read-out: WLR control value (C.V.)
Erysiphae graminis = experiment: Fungicidal activity against barley powdery mildew (BPM) disease, control value; format: in vivo; conditions: for pest or weed control at 2 ppm / pest or weed control at 10 ppm / pest or weed control at 50 ppm / pest or weed control at 100 ppm: 168 h, read-out: BPM control value (C.V.)
Rhizoctonia solani AG-1 = experiment: Fungicidal activity against rice sheath blight (RSB) disease, control value; conditions: for pest or weed control at 2 ppm / pest or weed control at 10 ppm / pest or weed control at 50 ppm / pest or weed control at 100 ppm: Rhizoctonia solani, AG1, in Oryza sativa, read-out: RSB control value (C.V.)
[2] = Hordeum vulgare, 2 ppm, barley powdery mildew
[3] = Hordeum vulgare, 10 ppm, barley powdery mildew
[4] = Hordeum vulgare, 50 ppm, barley powdery mildew
[5] = Hordeum vulgare, 100 ppm, barley powdery mildew

CNC(=O)/C(=N/OC)c1ccccc1COc1c(OC)ccc(C=C(Br)Br)c1Br [Example 76]
RCB control value (C.V.) ([1]; 2 ppm): 30%
RCB control value (C.V.) ([1]; 10 ppm): 90%
RCB control value (C.V.) ([1]; 50 ppm): 100%
RCB control value (C.V.) ([1]; 100 ppm): 100%
CGM control value (C.V.) (Botrytis cinerae): 45%
TLB control value (C.V.) (Phytophthora infestans; 2 ppm): 70%
TLB control value (C.V.) (Phytophthora infestans; 10 ppm): 90%
TLB control value (C.V.) (Phytophthora infestans; 50 ppm): 98%
TLB control value (C.V.) (Phytophthora infestans; 100 ppm): 100%
WLR control value (C.V.) (Puccinia recondita; 2 ppm): 95%
WLR control value (C.V.) (Puccinia recondita; 10 ppm): 100%
WLR control value (C.V.) (Puccinia recondita; 50 ppm): 100%
WLR control value (C.V.) (Puccinia recondita; 100 ppm): 100%
BPM control value (C.V.) (Erysiphae graminis; 2 ppm): 95%
BPM control value (C.V.) (Erysiphae graminis; 10 ppm): 100%
BPM control value (C.V.) (Erysiphae graminis; 50 ppm): 100%
BPM control value (C.V.) (Erysiphae graminis; 100 ppm): 100%
RSB control value (C.V.) (Rhizoctonia solani AG-1; 2 ppm): 65%
RSB control value (C.V.) (Rhizoctonia solani AG-1; 10 ppm): 98%
RSB control value (C.V.) (Rhizoctonia solani AG-1; 50 ppm): 100%
RSB control value (C.V.) (Rhizoctonia solani AG-1; 100 ppm): 100%

CO/N=C(/C(=O)OC)c1ccccc1CON=C(C)c1ccc(C=C(F)F)cc1 [Example 29, methyl-(E)-2-[[[[[2-[4-(2,2-difluorovinyl)phenyl](1-methyl)methylidene]amino]oxy]methyl]phenyl]-2-methoxyiminoacetate]
RCB control value (C.V.) ([1]; 2 ppm, rice blast): 100%
RCB control value (C.V.) ([1]; 10 ppm, rice blast): 100%
RCB control value (C.V.) ([1]; 50 ppm, rice blast): 100%
RCB control value (C.V.) ([1]; 100 ppm, rice blast): 100%
CGM control value (C.V.) (Botrytis cinerae; cucumber gray mold rot): 24%
TLB control value (C.V.) (Phytophthora infestans; 2 ppm, tomato late blight): 100%
TLB control value (C.V.) (Phytophthora infestans; 10 ppm, tomato late blight): 100%
TLB control value (C.V.) (Phytophthora infestans; 50 ppm, tomato late blight): 100%
TLB control value (C.V.) (Phytophthora infestans; 100 ppm, tomato late blight): 100%
WLR control value (C.V.) (Puccinia recondita; 2 ppm, wheat leaf rust): 100%
WLR control value (C.V.) (Puccinia recondita; 10 ppm, wheat leaf rust): 100%
WLR control value (C.V.) (Puccinia recondita; 50 ppm, wheat leaf rust): 100%
WLR control value (C.V.) (Puccinia recondita; 100 ppm, wheat leaf rust): 100%
BPM control value (C.V.) (Erysiphae graminis; 2 ppm, barley powdery mildew): 15%
BPM control value (C.V.) (Erysiphae graminis; 10 ppm, barley powdery mildew): 60%
BPM control value (C.V.) (Erysiphae graminis; 50 ppm, barley powdery mildew): 93%
BPM control value (C.V.) (Erysiphae graminis; 100 ppm, barley powdery mildew): 100%
RSB control value (C.V.) (Rhizoctonia solani AG-1; 100 ppm, rice sheath blight): 30%

CNC(=O)/C(=N/OC)c1ccccc1COc1cc(C=C(Cl)Cl)ccc1OC [Example 48, (E)-2-(2-((5-(2,2-dichlorovinyl)-2-methoxyphenoxy)methyl)phenyl)-2-methoxyimino-N-methylacetamide]
pest or weed control at 2 ppm [1]: 90%
pest or weed control at 10 ppm [1]: 100%
pest or weed control at 50 ppm [1]: 100%
pest or weed control at 100 ppm [1]: 100%
pest or weed control at 100 ppm (Botrytis cinerae; cucumber gray mold rot): 50%
pest or weed control at 2 ppm (Phytophthora infestans): 70%
pest or weed control at 10 ppm (Phytophthora infestans): 99%
pest or weed control at 50 ppm (Phytophthora infestans): 100%
pest or weed control at 100 ppm (Phytophthora infestans): 100%
pest or weed control at 2 ppm (Puccinia recondita; 2 ppm, wheat leaf rust): 100%
pest or weed control at 10 ppm (Puccinia recondita; 10 ppm, wheat leaf rust): 100%
pest or weed control at 50 ppm (Puccinia recondita; 50 ppm, wheat leaf rust): 100%
pest or weed control at 100 ppm (Puccinia recondita; 100 ppm, wheat leaf rust): 100%
pest or weed control at 2 ppm (Erysiphae graminis; [2]): 99%
pest or weed control at 10 ppm (Erysiphae graminis; [3]): 100%
pest or weed control at 50 ppm (Erysiphae graminis; [4]): 100%
pest or weed control at 100 ppm (Erysiphae graminis; [5]): 100%
pest or weed control at 2 ppm (Rhizoctonia solani AG-1): 95%
pest or weed control at 10 ppm (Rhizoctonia solani AG-1): 98%
pest or weed control at 50 ppm (Rhizoctonia solani AG-1): 100%
pest or weed control at 100 ppm (Rhizoctonia solani AG-1): 100%

CNC(=O)/C(=N/OC)c1ccccc1COc1cccc(C=C(Cl)Cl)c1 [Example 2, (E)-2-(2-((3-(2,2-dichlorovinyl)phenoxy)methyl)phenyl)-2-methoxyimino-N-methylacetamide]
pest or weed control at 2 ppm [1]: 90%
pest or weed control at 10 ppm [1]: 97%
pest or weed control at 50 ppm [1]: 100%
pest or weed control at 100 ppm [1]: 100%
pest or weed control at 100 ppm (Botrytis cinerae; cucumber gray mold rot): 34%
pest or weed control at 2 ppm (Phytophthora infestans): 98%
pest or weed control at 10 ppm (Phytophthora infestans): 100%
pest or weed control at 50 ppm (Phytophthora infestans): 100%
pest or weed control at 100 ppm (Phytophthora infestans): 100%
pest or weed control at 2 ppm (Puccinia recondita; 2 ppm, wheat leaf rust): 30%
pest or weed control at 10 ppm (Puccinia recondita; 10 ppm, wheat leaf rust): 90%
pest or weed control at 50 ppm (Puccinia recondita; 50 ppm, wheat leaf rust): 98%
pest or weed control at 100 ppm (Puccinia recondita; 100 ppm, wheat leaf rust): 100%
pest or weed control at 2 ppm (Erysiphae graminis; [2]): 100%
pest or weed control at 10 ppm (Erysiphae graminis; [3]): 100%
pest or weed control at 50 ppm (Erysiphae graminis; [4]): 100%
pest or weed control at 100 ppm (Erysiphae graminis; [5]): 100%
pest or weed control at 100 ppm (Rhizoctonia solani AG-1): 32%

CO/N=C(/C(=O)OC)c1ccccc1COc1ccc(C=C(Br)Br)cc1C [Example 65, methyl-(E)-2-(2-((4-(2,2-dibromovinyl)-2-methylphenoxy)methyl)phenyl)-2-methoxyiminoacetate]
pest or weed control at 2 ppm [1]: 100%
pest or weed control at 10 ppm [1]: 100%
pest or weed control at 50 ppm [1]: 100%
pest or weed control at 100 ppm [1]: 100%
pest or weed control at 100 ppm (Botrytis cinerae): 35%
pest or weed control at 2 ppm (Phytophthora infestans): 50%
pest or weed control at 10 ppm (Phytophthora infestans): 80%
pest or weed control at 50 ppm (Phytophthora infestans): 100%
pest or weed control at 100 ppm (Phytophthora infestans): 100%
pest or weed control at 2 ppm (Puccinia recondita; Puccinia recondita, 2 ppm): 100%
pest or weed control at 10 ppm (Puccinia recondita; Puccinia recondita, 10 ppm): 100%
pest or weed control at 50 ppm (Puccinia recondita; Puccinia recondita, 50 ppm): 100%
pest or weed control at 100 ppm (Puccinia recondita; Puccinia recondita, 100 ppm): 100%
pest or weed control at 2 ppm (Erysiphae graminis; 2 ppm): 60%
pest or weed control at 10 ppm (Erysiphae graminis; 10 ppm): 95%
pest or weed control at 50 ppm (Erysiphae graminis; 50 ppm): 100%
pest or weed control at 100 ppm (Erysiphae graminis; 100 ppm): 100%
pest or weed control at 2 ppm (Rhizoctonia solani AG-1): 97%
pest or weed control at 10 ppm (Rhizoctonia solani AG-1): 100%
pest or weed control at 50 ppm (Rhizoctonia solani AG-1): 100%
pest or weed control at 100 ppm (Rhizoctonia solani AG-1): 100%

Reference: patent US8410302B2, “Methoxyimino compounds and fungicide composition comprising same” (Kyung Nong Corporation, priority 2007, dated 2013)
